Laboratory results reported in patent US12552760B2, “Compounds for increasing the nicotinamide adenine dinucleotide in a subject and methods of use thereof” (The Board of Trustees of the University of Illinois, priority 2022, dated 2026).
“Also recorded” adds a separate entry of the source.

Legend:
[1] = system: THP-1 human monocytes; test: Measurement of cellular NAD^+ levels in THP-1 cell cultures (NAD/NADH-Glo); format: cell-based; conditions: for potency in THP-1 relative to NP-A3-B2 (cellular EC50 not quantifiable): dose response studies; for ability to raise NAD^+ levels compared to the parent compound NP-A3-B2: initial screening, 3 μM, 24 hours, data not shown
Description: Measurement of cellular NAD^+ levels in THP-1 cell cultures. Using FK-866 and NMN as negative and positive controls, respectively, we explored a number of cell lines to select a highly reproducible model system with good dynamic range. We optimized a commercial NAD-glo assay in the THP-1 human leukemic monocyte cell line in 96-well plates, measuring NAD^+ after incubation with test compounds for 24 hours. […] All cells were grown at 37° C., under 5% CO2 in a humidified incubator. Low passage THP-1 cells (37,500 cells/well) were seeded in 96-well plates and incubated at 37° C. and 5% CO2 for 1½ h prior to a 24 h treatment. All compounds were dissolved in DMSO, and final DMSO concentrations never exceeded 1%. The NAD^+ levels in the cells are measured using the NAD^+/NADH-Glo™ assay (Promega). The assays were performed in triplicate for each concentration and the IC50 values were determined from non-linear regression analysis of the dose-response curve generated in GraphPad Prism 9.

[2] = system: HT-22 mouse hippocampal cell line; test: TNFα-induced ROS in HT-22 cells (MitoSOX); format: cell-based; conditions: for effect on ROS levels across tested concentrations: screened against 1 μg/mL TNFα (FIG. 2A)
Description: (§1) Cell Culture and Drug Treatments. HT22 mouse hippocampal neuronal cells (a gift from the Salk Institute) were grown in Dulbecco's modified Eagle's medium (DMEM) containing 10% FBS and 1× Antibiotic-Antimycotic (ABAM). Cells were maintained in a humidified 5% CO2 atmosphere incubator at 37° C., and were passaged when 60-80% confluent (1-2 days) by removing media, rinsing with phosphate buffered saline (PBS), and enzymatically detaching with trypsin solution. New culture dishes were seeded with ¼ to ½ the cells from the previous dish.
All assays were performed using cells with passage number 12-50. The inner 60 wells of black-walled (Corning®3603/3604) 96-well plates were treated with poly D-lysine (30 μL/well) making sure to cover the entire well surface for 15-30 seconds and then washed thoroughly with sterile water (3×−200 μL/well). TNFα stock solutions (10 μg/mL, PBS (0.1% BSA)) were made, aliquoted, and stored at −80° C. Glutamate stock solutions were made fresh immediately before assay. All compound stock solutions (10 mM, DMSO) were made and stored at −20° C.
Cells were plated at a seeding density of 3,000-5,000 cells/well and allowed to incubate overnight. The next day (18-24 hours later) cells were pretreated with N-PAMs, carefully ensuring equivalent vehicle (DMSO/PBS) composition in each well. After 18-24 hours, stressors (glutamate or TNFα) were treated. Live cell count, ROS level, and total cell count were then assessed after another 18-24 hours.
ROS Detection. ROS levels were quantified using MitoSOX Red Mitochondrial Superoxide Indicator (Invitrogen). At treatment endpoint, the cell culture media was removed and replaced with phosphate buffered saline (PBS) containing 1 μM calcein-AM, 5 μM MitoSOX, and 10 μg/mL Hoechst dyes. Cells were incubated for 30-45 minutes and then dye-containing PBS was dumped and replaced with 100 μL/well fresh PBS. The plate was immediately analyzed in the Celigo Imaging Cytometer using the Live-Dead-Total protocol, where MitoSOX was used in place of propidium iodide. The cell counts and fluorescence intensities for living (calcein), MitoSOX-stained, and total (Hoechst) were acquired. MitoSOX average mean fluorescence intensity (“dead” average mean intensity) was used to quantify mitochondrial ROS. All readouts used were transformed into fold-change over vehicle treatment for visualization.
We set out to design assays representing the connection between OS and the multifaceted pathophysiology of aging and ND. We assessed multiple treatments in several cell lines to model OS induced by diverse factors such as neuroinflammatory signaling, neurotransmitter signaling, and direct oxidant species. Assay development highlighted the neuronal HT-22 mouse hippocampal cell line as most robust for these purpose s, and inflammatory cytokine TNFα as being a reliable and disease-relevant method for inducing ROS generation.

[3] = biological target: T1, NAMPT (Homo sapiens, UniProt P43490); test: NAMPT coupled enzyme activity assay (HTS coupled three-enzyme assay); format: biochemical; conditions: dose-response (FIG. 1B)
T1 construct: His6 (C); made in house
T1 sequence (P43490 whole entry): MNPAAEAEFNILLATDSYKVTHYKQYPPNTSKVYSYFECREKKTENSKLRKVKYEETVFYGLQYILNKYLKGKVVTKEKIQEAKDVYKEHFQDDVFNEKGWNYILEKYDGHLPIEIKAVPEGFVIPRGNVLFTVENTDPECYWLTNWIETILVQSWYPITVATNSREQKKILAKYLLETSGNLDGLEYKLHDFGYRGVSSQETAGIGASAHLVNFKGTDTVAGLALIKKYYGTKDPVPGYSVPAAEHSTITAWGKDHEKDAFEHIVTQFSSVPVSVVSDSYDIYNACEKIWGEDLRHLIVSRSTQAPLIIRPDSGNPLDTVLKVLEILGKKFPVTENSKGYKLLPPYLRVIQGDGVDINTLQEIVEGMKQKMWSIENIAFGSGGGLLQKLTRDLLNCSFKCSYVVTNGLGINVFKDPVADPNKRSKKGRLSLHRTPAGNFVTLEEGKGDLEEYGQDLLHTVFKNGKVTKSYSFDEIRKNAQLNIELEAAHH
Text: NAMPT coupled enzyme activity assay. The NAMPT enzyme assay is based on conditions from Burgos and Schramm and adapted to include a cycling reaction to quantitate NAD^+ production colorimetrically^1. The assay follows the NAMPT-catalyzed production of NMN from substrates NAM and PRPP by coupling NMN formation to the NMNAT reaction, which produces NAD^+ from NMN and ATP. The NAD^+ is then cycled by alcohol dehydrogenase (ADH) and diaphorase to continuously produce WST-1 formazan, which can be detected at 450 nm. Assays are performed at 25° C. in clear 384-well plates, with a final assay volume of 30 μL, and contain the following: 50 mM HEPES, pH 7.5, 5 mM MgCl2, 50 mM NaCl, 0.01% Triton-X 100, 2.5 mM ATP, 40 μM PRPP, 1-500 μM NAM, 1.5 μL WST-1 (Roche Cell Proliferation Reagent), 1 U/mL ADH, 0.083 U/mL diaphorase, 1.5% ethanol, 1% DMSO, 30 nM NAMPT, and 7.4 nM purified human NMNAT1. N-terminal His6-NMNAT1 and C-terminal His6-NAMPT were overexpressed and purified by metal chelate affinity chromatography. Following assay assembly, well signals were measured continuously at 450 nm on a Tecan Infinite M200 plate reader for 1 h with intermittent shaking. Slopes of the linear portions of the reaction progress curves were recorded and corrected for background by subtracting the average slope of control wells containing NAMPT inhibitor FK866.
A high-throughput screen (HTS) of 22,000 compounds was performed to identify those that augment NAMPT enzymatic activity^38. Screening used a coupled three-enzyme assay to detect conversion of NAM to NAD^+, as previously described by our group^37. […] We also established assays in which to assess the ability of our compounds to mitigate neuronal oxidative stress.

[4] = system: HT-22 mouse hippocampal cell line; test: Glutamate-induced ROS in HT-22 cells (MitoSOX); format: cell-based; conditions: 75 mM glutamate
Description: as §1
All assays were performed using cells with passage number 12-50. […]
Cells were plated at a seeding density of 3,000-5,000 cells/well and allowed to incubate overnight. […] Live cell count, ROS level, and total cell count were then assessed after another 18-24 hours.
ROS Detection. ROS levels were quantified using MitoSOX Red Mitochondrial Superoxide Indicator (Invitrogen). […] The plate was immediately analyzed in the Celigo Imaging Cytometer using the Live-Dead-Total protocol, where MitoSOX was used in place of propidium iodide. The cell counts and fluorescence intensities for living (calcein), MitoSOX-stained, and total (Hoechst) were acquired. MitoSOX average mean fluorescence intensity (“dead” average mean intensity) was used to quantify mitochondrial ROS. All readouts used were transformed into fold-change over vehicle treatment for visualization.

[5] = system: Tg2576/PGC-1α knockout mice; conditions: 250 mg/kg/d (p.o) 3 months; Gong, B. et al. 2013; cited from earlier work
[6] = system: hSOD1^G93A mouse derived astrocytes and motor neurons; conditions: NR or NMN, 5 mM, 24-72 h; Harlan, B. A. et al. 2019; cited from earlier work
[7] = system: 3xTgAD, and 3xTgAD/Polβ^+/− mice; conditions: 12 mM in drinking water p.o. 6 months; Hou, Y. et al. 2018; cited from earlier work
[8] = system: APPSwe/PSEN1dE9 mice; conditions: 400 mg/kg/d (p.o.) 10 weeks; Sorrentino, V. et al. 2017; cited from earlier work
[9] = system: GMC101 worms; conditions: 1 mM, 1-8 days; Sorrentino, V. et al. 2017; cited from earlier work
[10] = system: Csb^m/m mice; conditions: 500 mg/kg/d (i.p.) 1 week; Scheibye-Knudsen, M. et al. 2014; cited from earlier work
[11] = dose response study, 30 μM (FIG. 1A)

COc1ccc(CN(CCC2(C(C)C)CCOC(C)(C)C2)C(=O)c2ccsc2)cc1 (stereo not drawn) [JGB-1-127, N-(2-(4-isopropyl-2,2-dimethyltetrahydro-2H-pyran-4-yl)ethyl)-N-(4-methoxybenzyl)thiophene-3-carboxamide]
potency in THP-1 relative to NP-A3-B2 (cellular EC50 not quantifiable) [1]: improved potency | ability to raise NAD^+ levels compared to the parent compound NP-A3-B2 [1]: significantly greater ability to raise NAD^+ levels

CC(C)C1(CCN(Cc2ccc3[nH]ccc3c2)C(=O)c2ccco2)CCOC(C)(C)C1 (stereo not drawn) [JGB-1-134, N-((1H-indol-5-yl)methyl)-N-(2-(4-isopropyl-2,2-dimethyltetrahydro-2H-pyran-4-yl)ethyl)furan-2-carboxamide]
ability to raise NAD^+ levels compared to the parent compound NP-A3-B2 [1]: significantly greater ability to raise NAD^+ levels | effect on ROS levels at 40 μM ([2]; 1 μg/mL TNFα, 40 μM compound (FIG. 2A)): trended toward ROS mitigation | effect on ROS levels across tested concentrations [2]: little effect until 40 μM

COc1ccc(CN(CCC2(C(C)C)CCOC(C)(C)C2)C(=O)c2cccs2)cc1 (stereo not drawn) [JGB-1-137, N-(2-(4-isopropyl-2,2-dimethyltetrahydro-2H-pyran-4-yl)ethyl)-N-(4-methoxybenzyl)thiophene-2-carboxamide]
NAD^+ production in THP-1 ([1]; SAR summary, thiophene replacement of the R^2 furan (FIGS. 4 and 5)): significantly improved NAD^+ production | potency in THP-1 relative to NP-A3-B2 (cellular EC50 not quantifiable) [1]: improved potency | ability to raise NAD^+ levels compared to the parent compound NP-A3-B2 [1]: significantly greater ability to raise NAD^+ levels | effect on ROS levels across tested concentrations [2]: dose-dependent downward trend in ROS levels

COc1ccc(CN(CCC2(C(C)C)CCOC(C)(C)C2)C(=O)c2cnc[nH]2)cc1 (stereo not drawn) [JGB-1-147, N-(2-(4-isopropyl-2,2-dimethyltetrahydro-2H-pyran-4-yl)ethyl)-N-(4-methoxybenzyl)-1H-imidazole-5-carboxamide]
IC50 ([3]; NAMPT inhibition): 5.32 µM | Amax [3]: 0.25 fold | effect on NAMPT activity [3]: inhibitory activity; also recorded: inhibits NAMPT

CC(C)C1(CCN(Cc2ccc(N(C)C)cc2)C(=O)c2ccco2)CCOC(C)(C)C1 (stereo not drawn) [JGB-1-155, N-(4-(dimethylamino)benzyl)-N-(2-(4-isopropyl-2,2-dimethyltetrahydro-2H-pyran-4-yl)ethyl)furan-2-carboxamide]
EC50 ([3]; NAMPT activation): 3.41 µM | activity in THP-1 ([1]; SAR summary (FIGS. 4 and 5)): improved activity | potency in THP-1 relative to NP-A3-B2 (cellular EC50 not quantifiable) [1]: improved potency | NAD^+ fold over control [1, 11]: 1.88 fold | increase in NAD^+ over control [1, 11]: 88% | ability to raise NAD^+ levels compared to the parent compound NP-A3-B2 [1]: significantly greater ability to raise NAD^+ levels | ROS-reducing activity against glutamate insult [4]: dose-dependent ROS-reducing activity | ROS levels relative to vehicle treated control ([4]; 20 μM and 40 μM (FIG. 2D)): decreased ROS levels below that of the vehicle treated control | ROS attenuation relative to other analogs and the hit ([2]; 1 μg/mL TNFα (FIG. 2A)): outperformed all other analogs and the hit in ROS attenuation | activity in HT-22 ([2]; SAR summary, over the 4-methoxy compounds (FIGS. 4 and 5)): improved activity | reduction of TNFα-induced ROS ([2]; further replicates, 20 μM and 40 μM (FIG. 2B)): highly significant reduction of TNFα-induced ROS | effect on ROS levels across tested concentrations [2]: dose-dependent downward trend in ROS levels

NC(=O)c1ccc[n+]([C@@H]2O[C@H](CO)[C@@H](O)[C@H]2O)c1 [NR]
NAD^+ levels and PGC-1α expression [5]: Increased NAD^+ | cognitive (novel object recognition) performance [5]: Improved | synaptic plasticity [5]: Improved synaptic | Nrf2 mediated Antioxidant Response Element activation [6]: Increased Nrf2 | NAD^+/NADH ratio [7]: Increased | learning, memory, motor function, and anxiety [7]: Improved | neurogenesis [7]: Increased | neuroinflammation [7]: Decreased | p-Tau levels [7]: Decreased p-Tau | synaptic plasticity [7]: Restored synaptic | Aβ aggregation [8]: Reduced Aβ | impaired memory [8]: Enhanced | mitochondrial function [8]: Improved | health- and lifespan of worms [9]: Increased health- | proteotoxicity and aggregation of Aβ [9]: Reduced | cerebellar NAD^+ ATP, mitochondrial function [10]: Rescued | gene profile associated with oxidative stress, DNA repair, mitochondrial function [10]: Normalized gene

O=C(NCc1ccncc1)Nc1ccc(S(=O)(=O)N2CC3CCC(C2)O3)cc1 [SBI-797812]
effect on ROS levels across tested concentrations [2]: no significant effects on ROS at any concentration tested
